From US20090220473A1, “ADIR RELATED POLYMORPHISMS AND APPLICATIONS THEREOF” (Leiden University Medical Center, priority 2006, published 2009) come the findings set out here.

In one assay the test system is GVHD. As to the kind of experiment: Treatment of acute GVHD in the patient after DLI. Type of assay: in vivo, human. The settings on record: 1 mg prednisolone/kg body weight and cyclosporin A together.
A further assay deals with T2 cells. Kind of assay: 51Cr release assay on peptide loaded T2 cells with CTL. Type of assay: cell-based. As to conditions: for recognition (lysis) by RDR2 of peptide loaded T2 cells: 51Cr release assay, FIG. 2b. On the procedure: Cytotoxicity of CTL clones in standard ^51Cr release assays was performed as described previously (Faber et al. 1992, J Exp Med 176: 1283-1289). Target cells were labelled with 100 μCi Na2^51CrO4 (Amersham Biosciences, Freiburg, Germany) for 1 hour at 37° C., washed, and diluted to […] to 5*10^4 cells per ml to obtain 10^3 to 5*10^3 target cells per well. CTL's were added in various effector:target (E:T) ratios and incubated for 4 hours. Supernatants were harvested and transferred to solid scintillator containing microplates (Perkin Elmer, Boston Mass., USA) and counted on a Topcount counter (Perkin Elmer). HPLC purified natural peptides or diluted synthetic peptides were tested for reactivity by loading ^51Cr labelled T2 or donor EBV LCL cells for 1-2 hours at 37° C. and 5% CO2 prior to addition of CTL.

Assay [1] deals with T1, recombinant HLA A*0201 molecules (Homo sapiens, UniProt P04439, D140Y/D185E/D98H/E176V/E277Q/G131W/G231S/I119V/I121R/I166T/I218V/L300P/L318F/N151K/N90K/P208A/P217A/Q86G/Q94H/R138H/R169H/T345S).
T1 construct: biotin (biotinylated); made in house
As to the kind of experiment: Binding of peptides to recombinant HLA A*0201 molecules (monomer folding). The text has this: Recombinant biotinilated HLA A*0201 monomers were folded in the presence of β2-microbglobulin with peptide […] or […]. Streptavidin-PE and streptavidin-APC tetramers were produced with refolded complexes as described previously (Altman et al. 1996 Science 274: 94-96). Tetrameric complexes were used to stain thawed patient samples taken at the indicated time points post SCT and DLI. Cells were counterstained by CD8 APC (Caltag, Burlingame, Calif., USA) and analysed by flowcytometry. Tetramer positive events were single well FACS sorted, expanded and tested for cytotoxicity.

The target in assay [2] is recombinant HLA A*0201 molecules (human, biotinylated (site not stated)). Kind of assay: refolding of recombinant HLA A*0201 with beta2-microglobulin and peptide.

Entries after “also recorded” stand apart in the source; their conditions may differ.

In the case of `C[C@]12C=CC(=O)C=C1CC[C@@H]1[C@@H]2[C@@H](O)C[C@@]2(C)[C@H]1CC[C@]2(O)C(=O)CO` [prednisolone], in the assay on GVHD, the “treatment of GVHD” value is “treated successfully”.

In the case of SVAPALALFPA [LB-ADIR-1F], in the assay on T2 cells, the “recognition (lysis) by RDR2 of peptide loaded T2 cells” value is “lysed; also recorded: recognized”. Also, the “binding to recombinant HLA A*0201 molecules” value in assay [1] is reported as “able to bind”.

For “SVAPALALSPA [SVAPALAL-S-PA, donor-type allelic counterpart peptide with serine at position 9, reference compound]”, the “recognition (lysis) by RDR2 of peptide loaded T2 cells” value in the assay with T2 cells is “not”. Further, the “binding to recombinant HLA A*0201 molecules” value in assay [1] is listed as “able to bind”.

On to SVAPAXAXFPA, for which the “peptide level at which lysis by RDR2 was reconstituted” value in the assay with T2 cells (51Cr labelled T2 cells loaded with synthetic peptide, levels as low as, data not shown) is at most 10 pM.

With SVAPALALFPA (Synthetic 11-mer) [LB-ADIR-1F peptide SVAPALALFPA], in assay [2], the binding result is given as “binds”.

B1: peptide SVAPALALSPA (peptide)
peptide: SVAPALALSPA
notes: Synthetic peptide of the donor-type (Ser) allele
For B1, in assay [2], the binding result is given as “binds”.
